From the NIST ThermoML archive (doi:10.1016/j.jct.2007.09.009)
± gives the expanded uncertainty stated by the source.

What was measured:
[1] = 298.15 K; 101.33 kPa; Liquid; Pycnometric method
[2] = refractive index (Na D-line) (dimensionless); conditions: 298.15 K; 101.33 kPa; Liquid; Standard Abbe refractometry
[3] = xn = mol fraction of the nth substance listed; conditions: 313.15 K, 101 kPa, Liquid, Direct dilatometry

CC(=O)N(C)C [N,N-dimethylethanamide]
Conditions	mass density [kg/m3]	refractive index
[1]	922.4 ± 0.9	–
[2]	–	1.43556 ± 0.0007

CC(=O)N(C)C [N,N-dimethylethanamide] + CCO
[3]
Conditions	excess molar volume [m3/mol]
x1 = 0.0259	-3.74e-08 ± 3e-09
x1 = 0.0456	-6.13e-08 ± 3.1e-09
x1 = 0.0769	-9.86e-08 ± 3.1e-09
x1 = 0.103	-1.237e-07 ± 3.1e-09
x1 = 0.1481	-1.61e-07 ± 3.2e-09
x1 = 0.1765	-1.787e-07 ± 3.2e-09
x1 = 0.2149	-1.991e-07 ± 3.2e-09
x1 = 0.2587	-2.157e-07 ± 3.2e-09
x1 = 0.2846	-2.228e-07 ± 3.2e-09
x1 = 0.3094	-2.282e-07 ± 3.2e-09
x1 = 0.3288	-2.315e-07 ± 3.2e-09
x1 = 0.3513	-2.338e-07 ± 3.2e-09
x1 = 0.3784	-2.352e-07 ± 3.2e-09
x1 = 0.3866	-2.374e-07 ± 3.2e-09
x1 = 0.4014	-2.353e-07 ± 3.2e-09
x1 = 0.4131	-2.373e-07 ± 3.2e-09
x1 = 0.4396	-2.356e-07 ± 3.2e-09
x1 = 0.4661	-2.327e-07 ± 3.2e-09
x1 = 0.4937	-2.292e-07 ± 3.2e-09
x1 = 0.5249	-2.227e-07 ± 3.2e-09
x1 = 0.5532	-2.161e-07 ± 3.2e-09
x1 = 0.5913	-2.059e-07 ± 3.2e-09
x1 = 0.6379	-1.906e-07 ± 3.2e-09
x1 = 0.6743	-1.761e-07 ± 3.2e-09
x1 = 0.7191	-1.593e-07 ± 3.2e-09
x1 = 0.7691	-1.359e-07 ± 3.1e-09
x1 = 0.8211	-1.109e-07 ± 3.1e-09
x1 = 0.8768	-7.86e-08 ± 3.1e-09
x1 = 0.9287	-4.6e-08 ± 3e-09
x1 = 0.962	-2.56e-08 ± 3e-09

CC(=O)N(C)C [N,N-dimethylethanamide] + CO
[3]
Conditions	excess molar volume [m3/mol]
x1 = 0.0166	-5.83e-08 ± 3.1e-09
x1 = 0.0295	-9.34e-08 ± 3.1e-09
x1 = 0.0344	-1.106e-07 ± 3.2e-09
x1 = 0.0508	-1.501e-07 ± 3.2e-09
x1 = 0.0623	-1.832e-07 ± 3.2e-09
x1 = 0.0717	-2.034e-07 ± 3.2e-09
x1 = 0.0953	-2.561e-07 ± 3.3e-09
x1 = 0.0979	-2.653e-07 ± 3.3e-09
x1 = 0.1263	-3.178e-07 ± 3.3e-09
x1 = 0.1366	-3.395e-07 ± 3.4e-09
x1 = 0.169	-3.878e-07 ± 3.4e-09
x1 = 0.1692	-3.91e-07 ± 3.4e-09
x1 = 0.1997	-4.315e-07 ± 3.4e-09
x1 = 0.2025	-4.324e-07 ± 3.4e-09
x1 = 0.228	-4.611e-07 ± 3.5e-09
x1 = 0.2317	-4.661e-07 ± 3.5e-09
x1 = 0.2533	-4.845e-07 ± 3.5e-09
x1 = 0.2599	-4.913e-07 ± 3.5e-09
x1 = 0.2804	-5.069e-07 ± 3.5e-09
x1 = 0.2837	-5.077e-07 ± 3.5e-09
x1 = 0.3079	-5.225e-07 ± 3.6e-09
x1 = 0.308	-5.222e-07 ± 3.6e-09
x1 = 0.3093	-5.264e-07 ± 3.6e-09
x1 = 0.3243	-5.305e-07 ± 3.5e-09
x1 = 0.3406	-5.399e-07 ± 3.5e-09
x1 = 0.3748	-5.488e-07 ± 3.5e-09
x1 = 0.4031	-5.518e-07 ± 3.6e-09
x1 = 0.4372	-5.508e-07 ± 3.6e-09
x1 = 0.4807	-5.416e-07 ± 3.5e-09
x1 = 0.5265	-5.238e-07 ± 3.5e-09
x1 = 0.5817	-4.921e-07 ± 3.5e-09
x1 = 0.5988	-4.766e-07 ± 3.5e-09
x1 = 0.6131	-4.66e-07 ± 3.5e-09
x1 = 0.6318	-4.516e-07 ± 3.5e-09
x1 = 0.6362	-4.516e-07 ± 3.5e-09
x1 = 0.6489	-4.37e-07 ± 3.4e-09
x1 = 0.6633	-4.244e-07 ± 3.4e-09
x1 = 0.6702	-4.188e-07 ± 3.4e-09
x1 = 0.6938	-3.98e-07 ± 3.4e-09
x1 = 0.6957	-3.938e-07 ± 3.4e-09
x1 = 0.6975	-3.923e-07 ± 3.4e-09
x1 = 0.7225	-3.669e-07 ± 3.4e-09
x1 = 0.7286	-3.606e-07 ± 3.4e-09
x1 = 0.7471	-3.413e-07 ± 3.3e-09
x1 = 0.752	-3.354e-07 ± 3.3e-09
x1 = 0.7584	-3.295e-07 ± 3.3e-09
x1 = 0.7813	-3.022e-07 ± 3.3e-09
x1 = 0.7951	-2.867e-07 ± 3.3e-09
x1 = 0.8055	-2.731e-07 ± 3.3e-09
x1 = 0.8278	-2.456e-07 ± 3.2e-09
x1 = 0.83	-2.444e-07 ± 3.2e-09
x1 = 0.8417	-2.295e-07 ± 3.2e-09
x1 = 0.8584	-2.065e-07 ± 3.2e-09
x1 = 0.8746	-1.858e-07 ± 3.2e-09
x1 = 0.8862	-1.705e-07 ± 3.2e-09
x1 = 0.9051	-1.481e-07 ± 3.2e-09
x1 = 0.9081	-1.406e-07 ± 3.2e-09
x1 = 0.9134	-1.337e-07 ± 3.1e-09
x1 = 0.9384	-9.87e-08 ± 3.1e-09
x1 = 0.943	-9.15e-08 ± 3.1e-09
x1 = 0.9698	-5.42e-08 ± 3.1e-09
x1 = 0.9711	-5.33e-08 ± 3.1e-09

CCO [ethanol]
Conditions	mass density [kg/m3]	refractive index
[1]	772.2 ± 3.4	–
[2]	–	1.3592 ± 0.0012

CO [methanol]
Conditions	mass density [kg/m3]	refractive index
[1]	772.2 ± 3.4	–
[2]	–	1.32645 ± 0.0012
